According to ChEMBL document CHEMBL4602603, “A review on HCV inhibitors: Significance of non-structural polyproteins” (Eur J Med Chem, 2019):

biological target: T1, Hepatitis C virus serine protease, NS3/NS4A (Hepatitis C virus, UniProt A3EZI9+D2K2A8); assay: Inhibition of HCV NS3/4a protease in presence Zn2+; format: protein-complex assay, Hepacivirus hominis; details: not given
T1 sequence (D2K2A8 whole entry): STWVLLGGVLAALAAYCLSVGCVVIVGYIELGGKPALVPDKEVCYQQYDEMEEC
T1 sequence (A3EZI9 whole entry): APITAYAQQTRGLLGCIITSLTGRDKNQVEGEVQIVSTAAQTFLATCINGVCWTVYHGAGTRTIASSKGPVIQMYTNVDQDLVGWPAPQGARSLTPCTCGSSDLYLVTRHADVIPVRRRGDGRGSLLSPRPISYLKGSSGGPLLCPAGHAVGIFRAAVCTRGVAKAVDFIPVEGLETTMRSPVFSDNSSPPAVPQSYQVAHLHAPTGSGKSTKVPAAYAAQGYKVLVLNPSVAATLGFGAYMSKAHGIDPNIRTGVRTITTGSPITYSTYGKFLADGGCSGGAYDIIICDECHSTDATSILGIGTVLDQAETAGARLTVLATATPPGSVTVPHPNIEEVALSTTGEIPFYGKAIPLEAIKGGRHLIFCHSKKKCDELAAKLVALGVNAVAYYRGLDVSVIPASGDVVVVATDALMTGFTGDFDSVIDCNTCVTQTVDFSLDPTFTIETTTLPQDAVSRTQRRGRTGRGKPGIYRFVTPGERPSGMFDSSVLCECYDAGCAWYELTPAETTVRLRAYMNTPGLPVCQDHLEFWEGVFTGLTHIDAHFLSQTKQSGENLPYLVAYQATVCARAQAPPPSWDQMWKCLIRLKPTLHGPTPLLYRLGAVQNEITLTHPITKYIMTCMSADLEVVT

| SMILES | Ki |
| --- | --- |
| Cn1c(Cc2nc3cc(C(N)=O)ccc3[nH]2)nc2ccc(C(=O)NC(CP(=O)(O)O)C(=O)O)cc21 (centres undefined) | 27 nM |

biological target: T2, RNA-directed RNA polymerase (Hepacivirus hominis, UniProt O39930); assay: Inhibition of HCV NS5B polymerase; details: not given
T2 sequence (O39930 whole entry): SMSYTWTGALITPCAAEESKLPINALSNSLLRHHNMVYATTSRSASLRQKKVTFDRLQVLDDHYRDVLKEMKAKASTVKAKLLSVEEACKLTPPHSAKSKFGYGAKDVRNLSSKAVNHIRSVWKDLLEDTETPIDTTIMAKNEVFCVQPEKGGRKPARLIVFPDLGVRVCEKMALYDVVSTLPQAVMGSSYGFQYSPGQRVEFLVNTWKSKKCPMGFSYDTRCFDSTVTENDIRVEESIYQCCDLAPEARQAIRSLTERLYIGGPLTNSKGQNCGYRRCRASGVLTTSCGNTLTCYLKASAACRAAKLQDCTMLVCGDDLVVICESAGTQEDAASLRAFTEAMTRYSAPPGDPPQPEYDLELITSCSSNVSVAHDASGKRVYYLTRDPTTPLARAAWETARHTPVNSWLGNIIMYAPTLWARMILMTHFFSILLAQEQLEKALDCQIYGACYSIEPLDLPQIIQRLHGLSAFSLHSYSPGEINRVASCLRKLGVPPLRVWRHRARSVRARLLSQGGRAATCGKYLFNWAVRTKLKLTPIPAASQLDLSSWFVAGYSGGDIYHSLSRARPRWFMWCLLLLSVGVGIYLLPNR

| SMILES | IC50 |
| --- | --- |
| Cc1cc2c(-c3ccc[nH]c3=O)c(C(=O)NS(=O)(=O)C3CC3)n(Cc3cc(F)ccc3F)c2cc1F | 8 nM |
| CC1COc2cc3c(-c4ccc[nH]c4=O)c(C(=O)NS(C)(=O)=O)n(Cc4cc(F)ccc4F)c3cc21 (centres undefined) | 6 to 15 nM |
| Nc1cc(Cn2c(C(=O)O)c(-c3ccc[nH]c3=O)c3ccc(Cl)cc32)ccn1 | 53 nM |
| CCCC1(CC(=O)O)OCCC2c3c(CC)ccc(Cl)c3NC21 (centres undefined) | 3000 nM |
| CS(=O)(=O)Nc1cccc(S(=O)(=O)NC(=O)c2c(-c3ccc[nH]c3=O)c3ccc(Cl)cc3n2Cc2ccnc(N)c2)c1 | 39 nM |
| Cc1ccc2c(-c3ccc[nH]c3=O)c(C(=O)NS(=O)(=O)C3CC3)n(Cc3cc(F)ccc3F)c2c1 | 5 nM |

test system: Hepatitis C virus; assay: Antiviral activity against HCV genotype 1b; format: functional, organism-based, Hepacivirus hominis; details: subtype 1b

| SMILES | EC50 |
| --- | --- |
| COC(=O)N[C@H](C(=O)N1C[C@H](C)C[C@@H]1c1nc2sc(-c3ccc(-c4ccc(-c5c[nH]c([C@@H]6[C@H](C)CCN6C(=O)[C@H](NC(=O)OC)C(C)C)n5)cc4)cc3)cc2[nH]1)C(C)C | 0.008 nM |
| C=C[C@H]1C[C@]1(NC(=O)[C@@H]1C[C@@H]2CN1C(=O)[C@H](C(C)(C)C)NC(=O)O[C@@H]1C[C@H]1CCCCCc1c(nc3ccccc3c1OC1CC3CCC(C1)N3C)O2)C(=O)NS(=O)(=O)C1(C)CC1 (some centres undefined) | 0.62 nM |

test system: Hepatitis C virus; assay: Antiviral activity against HCV; format: functional, organism-based, Hepacivirus hominis; details: not given

| EC50 | IC50 | SMILES |
| --- | --- | --- |
| 102000 nM |  | Nc1nc(C(F)(F)F)cc2c1[nH]c(=O)n2Cc1ccccc1 |
| 240 nM |  | O=C1Cn2c(c(C3CCCCC3)c3ccc(C(=O)O)cc32)-c2ccccc2N1 |
| 2200 nM |  | CCCCn1cc(/C=C2\Oc3cc(O)cc(O)c3C2=O)c2ccccc21 |
| 20000 nM |  | COCCOc1nc(N)c2[nH]c(=O)n(Cc3ccccc3)c2n1 |
| 2900 nM |  | CN(C)C(=O)Cn1c(-c2ccccc2)c(C2CCCCC2)c2sc(C(=O)O)cc21 |
| 180 nM |  | Cc1ccc(NC(=O)c2c(NO)cc(-c3ccccc3)oc2=O)cc1 |
| 150 nM |  | CC(C)N1CC[C@@H](N2CCn3c(c(C4CCCCC4)c4sc(C(=O)O)cc43)-c3ccccc3C2)C1 |
| 38 nM |  | CN(C)CCN(C)[C@@H]1Cn2c(c(C3CCCCC3)c3ccc(C(=O)O)cc32)-c2ccccc2O1 |
| 4800 nM |  | Nc1cc(Cn2c(C(=O)O)c(-c3ccc[nH]c3=O)c3ccc(Cl)cc32)ccn1 |
| 130 nM |  | Cc1c(C(=O)O)sc2c(C3CCCCC3)c(-c3ccccc3)n(CC(=O)N(C)C3CCN(C(C)C)C3)c12 (centres undefined) |
| 800 nM |  | CCN(CC)C1CCN(C(=O)Cn2c(-c3ccccc3)c(C3CCCCC3)c3ccc(C(=O)O)cc32)CC1 |
| 140 nM |  | CN(C)CCN1CCn2c(c(C3CCCCC3)c3ccc(C(=O)O)cc32)-c2ccccc2C1 |
| 100000 nM |  | CCc1nc2c(N)nc3ccccc3c2n1CCCCNS(C)(=O)=O [CPG-52852] |
| 1000 nM |  | CC(C)Cn1cnc2c(N)nc3ccccc3c21 [IMIQUIMOD] |

Second part, the compound before the results:

| SMILES | EC50 | IC50 |
| --- | --- | --- |
| O=C(N[C@@H](Cc1c[nH]c2ccc(O)cc12)c1cscn1)c1ccc2c(c1)nc(-c1ccco1)n2C1CCCCC1 | 1700 nM |  |
| CCCC[C@H](NC(=O)[C@@H]1[C@@H]2[C@H](CN1C(=O)[C@@H](NC(=O)NC1(CS(=O)(=O)C(C)(C)C)CCCCC1)C(C)(C)C)C2(C)C)C(=O)C(=O)NC1CC1 | 40 nM |  |
| C=C[C@@H]1C[C@]1(NC(=O)[C@@H]1C[C@@H](Oc2ncc(OC)c3ccc(Cl)cc23)CN1C(=O)[C@@H](NC(=O)OC(C)(C)C)C(C)(C)C)C(=O)NS(=O)(=O)C1CC1 | 1 nM |  |
| O=C(O)c1ccc2c(C3CCCCC3)c3n(c2c1)CCN(CCN1CCCCC1)c1ccccc1-3 | 400 nM |  |
| O=C(O)c1ccc2c(C3CCCCC3)c3n(c2c1)CCOc1cc(OCc2cc(N4CCCC4=O)ccc2N2CCOCC2)ccc1-3 | 7.6 nM |  |
| COc1ccc2c(O[C@@H]3C[C@H]4C(=O)N[C@]5(C(=O)O)C[C@H]5/C=C\CCCCC[C@H](NC(=O)OC5CCCC5)C(=O)N4C3)cc(-c3csc(NC(C)C)n3)nc2c1 | 9.5 nM |  |
| COC(=O)N[C@H](C(=O)N1CCC[C@H]1c1nc2ccc(-c3ccc(-c4ccc5nc([C@@H]6CCCN6C(=O)[C@@H](NC(=O)OC)C(C)C)[nH]c5c4)cc3)cc2[nH]1)C(C)C | 0.83 nM |  |
| CC(=O)N(c1ccc(N2CCOCC2)c(COc2ccc(-c3nc4cc(C(=O)O)ccc4n3C3CCCCC3)c(F)c2)c1)C(C)C | 270 nM |  |
| CC[C@@H]1C[C@]1(NC(=O)[C@@H]1C[C@@H]2CN1C(=O)[C@H](C(C)(C)C)NC(=O)OCC(C)(C)CCCCc1cccc3c1CN(C3)C(=O)O2)C(=O)NS(=O)(=O)C1CC1 |  | 3 nM |
| C/C(=C/c1cc(-c2ccc(OCc3cc(CN4CCC(O)CC4=O)ccc3-c3ccc(C#N)cc3)cc2)n(C2CCCCC2)n1)C(=O)O (centres undefined) | 400 nM |  |
| Cn1c(-c2ccco2)c(C2CCCCC2)c2ccc(C(=O)N[C@@H](Cc3c[nH]c4ccc(O)cc34)c3cscn3)cc21 | 50 nM |  |
| COc1ccc2c(c1)[C@H]1[C@@H](CCN1CCN(C)C)CCn1c-2c(C2CCCCC2)c2ccc(C(=O)O)cc21 | 29 nM |  |
| COc1ccc2c(c1)C=C(c1c(C(=O)C3C4CCCC3COC4)cnn1-c1ccncc1C)Cn1c-2c(C2CCCCC2)c2ccc(C(=O)NS(=O)(=O)C(C)C)cc21 (centres undefined) | 4 nM |  |
| Cn1c(-c2ccc(OCc3cc(N4CCCC4=O)ccc3N3CCOCC3)cc2)c(C2CCCCC2)c2sc(C(=O)O)cc21 | 52 nM |  |
| CS(=O)(=O)Nc1cccc(S(=O)(=O)NC(=O)c2c(-c3ccc[nH]c3=O)c3ccc(Cl)cc3n2Cc2ccnc(N)c2)c1 | 11 nM |  |
| CCc1ccc2c(-c3ccc[nH]c3=O)c(C(=O)NS(=O)(=O)C3CC3)n(Cc3cc([N+](=O)[O-])ccc3F)c2c1 | 1 nM |  |
| CCN(CC)C1CCN(C(=O)Cn2c(-c3ccco3)c(C3CCCCC3)c3ccc(C(=O)NS(=O)(=O)N(C)C)cc32)CC1 | 120 nM |  |
| Cc1ccc2c(-c3ccc[nH]c3=O)c(C(=O)NS(=O)(=O)C3CC3)n(Cc3cc(F)ccc3F)c2c1 | 90 nM |  |
| CC(C)(C)OC(=O)N[C@H]1CCCCC/C=C\[C@@H]2C[C@@]2(C(=O)NS(=O)(=O)C2CC2)NC(=O)[C@@H]2C[C@@H](OC(=O)N3Cc4cccc(F)c4C3)CN2C1=O [DANOPREVIR] | 17.5 nM |  |
| C=C[C@@H]1C[C@]1(NC(=O)[C@@H]1C[C@@H]2CN1C(=O)[C@H](C(C)(C)C)NC(=O)O[C@@H]1C[C@H]1CCCCCc1nc3ccc(OC)cc3nc1O2)C(=O)NS(=O)(=O)C1CC1 [GRAZOPREVIR ANHYDROUS] | 9.5 nM |  |
| COc1ccc2c(c1)C=C1Cn3c-2c(C2CCCCC2)c2ccc(cc23)C(=O)NS(=O)(=O)N(C)CCOCCN(C)C1=O [TMC-647055] | 82 nM |  |

biological target: T1, Hepatitis C virus serine protease, NS3/NS4A; assay: Inhibition of HCV NS3/4a protease; format: protein-complex assay, Hepacivirus hominis; details: not given

| SMILES | Ki | IC50 |
| --- | --- | --- |
| Cn1c(Cc2nc3cc(C(N)=O)ccc3[nH]2)nc2ccc(C(=O)NC(CP(=O)(O)O)C(=O)O)cc21 (centres undefined) | 1000 nM |  |
| COc1ccc2cc(O[C@@H]3C[C@@H](C(=O)NC4(C(=O)O)CC4)N(C(=O)[C@@H](NC(=O)[C@@H](NC(C)=O)C4CCCCC4)C(C)C)C3)cnc2c1 |  | 800 nM |
| CC(=O)N[C@@H](C(=O)O)C(=O)N[C@@H](CCC(=O)O)C(=O)N[C@H](C(=O)N[C@@H](CCC(=O)O)C(=O)N[C@@H](CC1CCCCC1)C(=O)N[C@@H](CC(F)F)C(=O)O)C(c1ccccc1)c1ccccc1 | 20 nM |  |
| CC(=O)N[C@@H](C(=O)O)C(=O)N[C@@H](CCC(=O)O)C(=O)N[C@H](C(=O)N[C@H](C(=O)N1C[C@H](OCc2ccccc2)C[C@H]1C(=O)NC(CS)C(=O)O)C(C)C)C1CCCCC1 (some centres undefined) |  | 33 nM |
| CC(C)C[C@H](NC[C@H](CC(=O)O)NC(=O)[C@H](CC1CCCCC1)NC(=O)[C@@H]1CCCC[C@H]1C(=O)O)C(N)=O |  | 15000 nM |
| CC(=O)N[C@@H](C(=O)O)C(=O)N[C@@H](CCC(=O)O)C(=O)N[C@H](C(=O)N[C@@H](CCC(=O)O)C(=O)N[C@@H](CC1CCCCC1)C(=O)N[C@@H](CS)C(=O)O)C(c1ccccc1)c1ccccc1 | 40 nM |  |
| CC(C)C[C@H](NC(=O)[C@H](CC(=O)O)NC(=O)OC(C)C)C(=O)N[C@@H](CC(F)(F)F)C(=O)NCCc1ccc(C(=O)O)cc1Cl | 600 nM |  |
| CC(=O)N[C@@H](C(=O)O)C(=O)N[C@@H](CCC(=O)O)C(=O)N[C@H](C(=O)N[C@H](C(=O)N1C[C@H](OCc2ccccc2)C[C@H]1C(=O)NC1(C(=O)O)CC1)C(C)C)C1CCCCC1 |  | 51 nM |

test system: Hepatitis C virus; assay: Antiviral activity against HCV genotype 1a; format: functional, organism-based, Hepacivirus hominis; details: subtype 1a

| SMILES | EC50 |
| --- | --- |
| COC(=O)N[C@H](C(=O)N1C[C@H](C)C[C@@H]1c1nc2sc(-c3ccc(-c4ccc(-c5c[nH]c([C@@H]6[C@H](C)CCN6C(=O)[C@H](NC(=O)OC)C(C)C)n5)cc4)cc3)cc2[nH]1)C(C)C | 0.017 nM |

biological target: T2, RNA-directed RNA polymerase; assay: Binding affinity to HCV NS5B polymerase; details: not given

| SMILES | Kd | IC50 |
| --- | --- | --- |
| CN(C)CC1COc2ccc3nc4n(c3c2C1)CC(CN(C)C)CN4 (centres undefined) | 720 nM |  |
| O=C(N[C@@H](Cc1c[nH]c2ccccc12)C(=O)O)c1ccc2c(c1)nc(-c1ccoc1)n2C1CCCCC1 |  | 19 nM |
| O=C(NCCCc1ccccc1)c1nc2ccccc2c(=O)n1O |  | 8800 nM |
| CN(C)CCCn1c(N)nc2ccc3c(c21)CC(CN(C)C)O3 (centres undefined) | 1700 nM |  |
| CN(C)CCCn1c(N)nc2ccccc21 | > 100000 nM |  |
| O=C(O)C1C(c2ccccc2)c2ccccc2C(=O)N1O (centres undefined) |  | 15700 nM |
| N#Cc1c(Cl)cc(Cl)cc1COc1cccc(C(=O)/C=C(\O)C(=O)O)c1 |  | 45000 nM |

biological target: T1, Hepatitis C virus serine protease, NS3/NS4A; assay: Inhibition of HCV NS3/4a protease using Ac-DE-Dap(QXL520)-EE-Abu-shi-[COO]AS-C(5-FAMsp)-NH2 as substrate after 15 mins; format: protein-complex assay, Hepacivirus hominis; details: not given

| SMILES | Ki | IC50 |
| --- | --- | --- |
| CCCC[C@H](NC(=O)[C@@H]1[C@@H]2[C@H](CN1C(=O)[C@@H](NC(=O)NC1(CS(=O)(=O)C(C)(C)C)CCCCC1)C(C)(C)C)C2(C)C)C(=O)C(=O)NC1CC1 | 6 nM |  |
| COc1ccc2c(O[C@@H]3C[C@H]4C(=O)N[C@]5(C(=O)NS(=O)(=O)C6CC6)C[C@H]5/C=C/CCCCN(C)C(=O)[C@@H]4C3)cc(-c3nc(C(C)C)cs3)nc2c1C |  | 3 to 28.2 nM |
| CC(C)(C)OC(=O)N[C@H]1CCCCC/C=C\[C@@H]2C[C@@]2(C(=O)NS(=O)(=O)C2CC2)NC(=O)[C@@H]2C[C@@H](OC(=O)N3Cc4cccc(F)c4C3)CN2C1=O [DANOPREVIR] |  | 0.2 to 3.5 nM |

test system: Hepatitis C virus; assay: Antiviral activity against HCV genotype 3a; format: functional, organism-based, Hepacivirus hominis; details: subtype 3a

| SMILES | EC50 |
| --- | --- |
| C=C[C@H]1C[C@]1(NC(=O)[C@@H]1C[C@@H]2CN1C(=O)[C@H](C(C)(C)C)NC(=O)O[C@@H]1C[C@H]1CCCCCc1c(nc3ccccc3c1OC1CC3CCC(C1)N3C)O2)C(=O)NS(=O)(=O)C1(C)CC1 (some centres undefined) | 0.26 nM |
